Measured values reported in patent publication US20260285850A1, “SUBSTITUTED OXAZOLIDINONES AND IMIDAZOLINONES AS HERBICIDES” (FMC CORPORATION, priority 2023, published 2026).

Tests used:
Format in all cases: in vivo
[1] = system: barnyardgrass (Echinochloa crusgalli); assay: Test B flooded paddy test, visual plant response rating 0-100; conditions: 250 g ai/ha, Flood, applied to paddy water, evaluated after 13 days
Summary of the method: (§1)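 Plants were grown to the 2-leaf stage, then pots were flooded to 3 cm above the soil and compound was applied directly to the paddy water, with that depth kept throughout.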

[2] = system: sedge, umbrella (small-flower umbrella sedge, Cyperus difformis); assay: as above; conditions: 250 g ai/ha, Flood, applied to paddy water, evaluated after 13 days
Summary of the method: as §1

[3] = system: ducksalad (Heteranthera limosa); assay: as above; conditions: 250 g ai/ha, Flood, applied to paddy water, evaluated after 13 days
Summary of the method: as §1

rice (Oryza sativa) = assay: as above; conditions: 250 g ai/ha, Flood, applied to paddy water, evaluated after 13 days
Summary of the method: as §1

[4] = system: oat, wild (wild oat, Avena fatua); assay: Test A preemergence soil spray, visual injury rating 0-100; conditions: 10 days, 0 = no effect, 100 = complete control
Summary of the method: (§2)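 Directed preemergence spray onto seeded soil or postemergence spray onto 2-10 cm plants (loam plus sand); compound carried in surfactant-containing non-phytotoxic solvent. Injury rated by eye after 10 d greenhouse growth; 0 = no effect, 100 = complete control.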

[5] = system: blackgrass (Alopecurus myosuroides); assay: as above; conditions: 10 days, 0 = no effect, 100 = complete control
Summary of the method: as §2

[6] = system: palmer (palmer amaranth, palmer pigweed, Amaranthus palmeri); assay: as above; conditions: 10 days, 0 = no effect, 100 = complete control
Summary of the method: as §2

[7] = system: barnyardgrass (Echinochloa crus-galli); assay: as above; conditions: 10 days, 0 = no effect, 100 = complete control
Summary of the method: as §2

[8] = system: wheat (Triticum aestivum); assay: as above; conditions: 10 days, 0 = no effect, 100 = complete control
Summary of the method: as §2

kochia (Bassia scoparia) [9] = assay: as above; conditions: 10 days, 0 = no effect, 100 = complete control
Summary of the method: as §2

corn (Zea mays) [10] = assay: as above; conditions: 10 days, 0 = no effect, 100 = complete control
Summary of the method: as §2

[11] = system: ragweed (common ragweed, Ambrosia artemisiifolia); assay: as above; conditions: 10 days, 0 = no effect, 100 = complete control
Summary of the method: as §2

[12] = system: green foxtail (Setaria viridis); assay: as above; conditions: 10 days, 0 = no effect, 100 = complete control
Summary of the method: as §2

soybean (Glycine max) [13] = assay: as above; conditions: 10 days, 0 = no effect, 100 = complete control
Summary of the method: as §2

[14] = system: ryegrass, Italian (italian ryegrass, Lolium multiflorum); assay: as above; conditions: 10 days, 0 = no effect, 100 = complete control
Summary of the method: as §2

[15] = system: oat, wild (wild oat, Avena fatua); assay: Test A postemergence application, visual injury rating 0-100; conditions: 10 days
Summary of the method: as §2

[16] = system: blackgrass (Alopecurus myosuroides); assay: as above; conditions: 10 days
Summary of the method: as §2

[17] = system: palmer (palmer amaranth, palmer pigweed, Amaranthus palmeri); assay: as above; conditions: 10 days
Summary of the method: as §2

[18] = system: barnyardgrass (Echinochloa crus-galli); assay: as above; conditions: 10 days
Summary of the method: as §2

[19] = system: wheat (Triticum aestivum); assay: as above; conditions: 10 days
Summary of the method: as §2

kochia (Bassia scoparia) [20] = assay: as above; conditions: 10 days
Summary of the method: as §2

corn (Zea mays) [21] = assay: as above; conditions: 10 days
Summary of the method: as §2

[22] = system: ragweed (common ragweed, Ambrosia artemisiifolia); assay: as above; conditions: 10 days
Summary of the method: as §2

[23] = system: green foxtail (Setaria viridis); assay: as above; conditions: 10 days
Summary of the method: as §2

soybean (Glycine max) [24] = assay: as above; conditions: 10 days
Summary of the method: as §2

[25] = system: ryegrass, Italian (italian ryegrass, Lolium multiflorum); assay: as above; conditions: 10 days
Summary of the method: as §2

[26] = system: horseweed (Erigeron canadensis); assay: as above; conditions: 10 days
Summary of the method: as §2

[27] = 31 g ai/ha, postemergence, 0 = no effect, 100 = complete control
[28] = Postemergence, 125 g ai/ha, 0 is no effect, 100 is complete control

COC(=O)C1CCC(NC(=O)C2(C)CN(c3cc(F)cc(F)c3)C(=O)O2)C1 (centres unmarked) [Compounds 10] was tested, and the “Plant response rating, Barnyardgrass (0 to 100 scale, 0 is no effect and 100 is complete control)” value [1] was 50, the “Plant response rating, Sedge, Umbrella (0 to 100 scale, 0 is no effect and 100 is complete control)” value [2] was 100 and the “Plant response rating, Ducksalad (0 to 100 scale, 0 is no effect and 100 is complete control)” value [3] was 100. The “Plant response rating, Rice (0 to 100 scale, 0 is no effect and 100 is complete control)” value (rice (Oryza sativa)) was 10, the “Oat, Wild plant response rating (0-100)” value ([4]; 31 g ai/ha) was 50 and the “Oat, Wild plant response rating (0 to 100 scale)” value ([4]; 125 g ai/ha) was 80. The “Blackgrass plant response rating (0-100)” value ([5]; 31 g ai/ha) was 30, the “Blackgrass plant response rating (0 to 100 scale)” value ([5]; 125 g ai/ha) was 90 and the “Amaranth, Palmer plant response rating (0-100)” value ([6]; 31 g ai/ha) was 0. The “Amaranth, Palmer plant response rating (0 to 100 scale)” value ([6]; 125 g ai/ha) was 40, the “Barnyardgrass plant response rating (0-100)” value ([7]; 31 g ai/ha) was 10 and the “Barnyardgrass plant response rating (0 to 100 scale)” value ([7]; 125 g ai/ha) was 90. For the same compound, the “Wheat plant response rating (0-100)” value ([8]; 31 g ai/ha) was 90, the “Wheat plant response rating (0 to 100 scale)” value ([8]; 125 g ai/ha) was 90 and the “Kochia plant response rating (0-100)” value (kochia (Bassia scoparia) [9]; 31 g ai/ha) was 20. For the same compound, the “Kochia plant response rating (0 to 100 scale)” value (kochia (Bassia scoparia) [9]; 125 g ai/ha) was 90, the “Corn plant response rating (0-100)” value (corn (Zea mays) [10]; 31 g ai/ha) was 0 and the “Corn plant response rating (0 to 100 scale)” value (corn (Zea mays) [10]; 125 g ai/ha) was 70. The “Ragweed plant response rating (0-100)” value ([11]; 31 g ai/ha) was 0, the “Ragweed plant response rating (0 to 100 scale)” value ([11]; 125 g ai/ha) was 0 and the “Foxtail, Green plant response rating (0-100)” value ([12]; 31 g ai/ha) was 0. The “Foxtail, Green plant response rating (0 to 100 scale)” value ([12]; 125 g ai/ha) was 90, the “Soybean plant response rating (0-100)” value (soybean (Glycine max) [13]; 31 g ai/ha) was 10 and the “Soybean plant response rating (0 to 100 scale)” value (soybean (Glycine max) [13]; 125 g ai/ha) was 50. For the same compound, the “Ryegrass, Italian plant response rating (0-100)” value ([14]; 31 g ai/ha) was 10, the “Ryegrass, Italian plant response rating (0 to 100 scale)” value ([14]; 125 g ai/ha) was 90 and the “Oat, Wild plant response rating (0-100)” value [15, 27] was 90. The “Oat, Wild plant response rating (0 to 100 scale)” value [15, 28] was 90, the “Blackgrass plant response rating (0-100)” value [16, 27] was 50 and the “Blackgrass plant response rating (0 to 100 scale)” value [16, 28] was 90. The “Amaranth, Palmer plant response rating (0-100)” value [17, 27] was 10, the “Amaranth, Palmer / Pigweed, Palmer plant response rating (0 to 100 scale)” value [17, 28] was 80 and the “Barnyardgrass plant response rating (0-100)” value [18, 27] was 60. The “Barnyardgrass plant response rating (0 to 100 scale)” value [18, 28] was 100, the “Wheat plant response rating (0-100)” value [19, 27] was 80 and the “Wheat plant response rating (0 to 100 scale)” value [19, 28] was 90. The “Kochia plant response rating (0-100)” value (kochia (Bassia scoparia) [20]; [27]) was 20, the “Kochia plant response rating (0 to 100 scale)” value (kochia (Bassia scoparia) [20]; [28]) was 70 and the “Corn plant response rating (0-100)” value (corn (Zea mays) [21]; [27]) was 40. The “Corn plant response rating (0 to 100 scale)” value (corn (Zea mays) [21]; [28]) was 100, the “Ragweed plant response rating (0-100)” value [22, 27] was 0 and the “Ragweed plant response rating (0 to 100 scale)” value [22, 28] was 0. The “Foxtail, Green plant response rating (0-100)” value [23, 27] was 20, the “Foxtail, Green plant response rating (0 to 100 scale)” value [23, 28] was 90 and the “Soybean plant response rating (0-100)” value (soybean (Glycine max) [24]; [27]) was 50. For the same compound, the “Soybean plant response rating (0 to 100 scale)” value (soybean (Glycine max) [24]; [28]) was 70, the “Ryegrass, Italian plant response rating (0-100)” value [25, 27] was 60 and the “Ryegrass, Italian plant response rating (0 to 100 scale)” value [25, 28] was 80. For the same compound, the “Horseweed plant response rating (0-100)” value [26, 27] was 30 and the “Horseweed plant response rating (0 to 100 scale)” value [26, 28] was 40.
